Data: patent US10716769B2 (GUANGZHOU JTREAT BIOSCI. LTD., priority 2015, dated 2020)

Experiments:
[1] = tested on: human umbilical vein endothelial cell line (ECV304); assay: MTT in vitro cell inhibition; assay type: cell-based; settings: 3 days
From the text: (§1) An effective amount of the above compounds and/or the compositions containing the same used as an active ingredient have an effect on inhibiting the tumor cells. The present invention detects the inhibitory effect of the hydroxy-substituted benzophenone compounds on the proliferation of the in vitro cultured human tumor cells by the methylthiazolyl tetrazolium method.
(§2) The method is used to detect cell viability. […] Particles can be dissolved by dimethyl sulfoxide (DMSO) isopropyl alcohol or 10% acidified SDS (sodium dodecyl sulfate), and a microplate reader is used to measure the OD value at A570 wavelength, which indirectly reflects the number of live cells. The method is used for detection of the cytokines bioactivity, as well as anti-tumor drugs and tumor radiosensitivity and cytotoxicity test, and has the characteristics of being simple, fast, economical, sensitive and accurate and having good reproducibility and no need to use radionuclides. This method has been widely used in screening preclinical anticancer drugs and detecting the drug sensitivity of fresh tumor cells. The method is as below:
(§3) (1) The tumor cell suspension prepared by 0.25% of trypsin digestion and adjusted to a cell concentration of 10^5/ml with RPMI1640 containing 10% fetal calf serum is added to a 96-well plate with 100 μl for each well, cultured 24 hours, and then different dosages of drugs are added with 100 μl/well, for which, the negative control groups, positive control groups and withering wells are set, and 4 parallel wells are set for each group.
(§4) (2) They are continually cultured in incubator containing 5% of CO2 at 37° C. for 24 to 48 hours. MTT solution (5 g/L) is added to each well before the termination of the experiment. The OD value at A570 nm is detected by microplate reader. The OD value at A570 of the negative group without the addition of drugs is taken as a control. The cell survival rate and cell inhibition rate of drugs are calculated according to the following formula: Cell survival rate=(OD value of test group/OD value of control group)×100% Cell inhibition rate (%)=(OD value of the control group−OD value of the test group/(OD value of the control group−OD value of the blank group)
(§5) 1. Tumor cell lines: human glioma cell line (U251), human colon cancer cell line (LOVO), human hepatoma cell line (HepG2), human lung cancer cell line (PC84045), human endometrial carcinoma cell line (JEC), human renal carcinoma (GRC), human gastric cancer cell line (MCG804), human cervical cancer cell line (HeLa), human hepatocellular carcinoma cell line (BEL-7402) and human umbilical vein endothelial cell line (ECV304) purchased from Animal Experimental Center of Zhongshan Medical College, and preserved by the present laboratory.
(§6) The tumor cell lines are cultured in RPMI-1640 medium containing 15% of the newborn bovine serum in a conventional manner, placed in the humidification incubator containing 5% of CO2 for being cultured at 37° C., and are observed for growth by an inverted microscope. A subculture is conducted every about 3-5 days, the cells in logarithmic growth phase are adopted to be digested with 0.25% of trypsin, and the serum-free RPMI-1640 medium is used for culturing the cell suspension; the blood counting plate makes counting, the trypan blue exclusion tests the cell activity, and the cell viability>95% is used for formal tests.
(§7) Liquid preparation: the compounds are labeled with the codes respectively, DMSO is used to dissolve each compound, the bacterial filter is used to remove bacteria, and each compound is prepared into 10^−4 g/ml, 10^−5 g/ml, 10^−6 g/ml and preserved at 4° C. for use. […]

MCF7 = assay: MTT in vitro tumor cell inhibition; assay type: cell-based; settings: 3 days
From the text: as §1, §2, §3, §4, §6
Liquid preparation: the compounds are labeled with the codes respectively, DMSO is used to dissolve each compound, the bacterial filter is used to remove bacteria, and each compound is prepared into 10^−4 g/ml, 10^−5 g/ml, 10^−6 g/ml and preserved at 4° C. for use.
MTT method: a bottle of 4-5 days old cells in the exponential growth phase are adopted to be cultured, and added with an appropriate amount of Trypsin-EDTA solution, so as to enable the adherent cells to fall off, and are prepared with 10 ml of RPMI-1640 medium containing 15% newborn bovine serum into suspensions; after stained with trypan blue, the cell number is counted on the blood counting plate to ensure that the live cells is more than 97%; the cell suspensions are diluted by the complete medium so that each […] of solution contains 5000-400000 cells; the 96-well plate is used with 200 μl of cell suspensions added into each. The 96-well plate is placed at 37° C. in 5% of CO2 containing incubator for 24 hours; the test compounds are diluted at 3 dilutions with 5 wells in parallel for each concentration; the serum-free RPMI1640 is used as the control group. […]

[2] = tested on: human hepatoma cell line (HepG2); assay: MTT in vitro tumor cell inhibition; assay type: cell-based; settings: 3 days
From the text: as §1, §2, §3, §4, §5, §6, §7

[3] = tested on: human endometrial carcinoma cell line (JEC); assay: MTT in vitro tumor cell inhibition; assay type: cell-based; settings: 3 days
From the text: as §1, §2, §3, §4, §5, §6, §7

[4] = tested on: human lung cancer cell line (PC84045); assay: MTT in vitro tumor cell inhibition; assay type: cell-based; settings: 3 days
From the text: as §1, §2, §3, §4, §5, §6, §7

[5] = tested on: human glioma cell line (U251); assay: MTT in vitro tumor cell inhibition; assay type: cell-based; settings: 3 days
From the text: as §1, §2, §3, §4, §5, §6, §7

[6] = tested on: human cervical cancer cell line (HeLa); assay: MTT in vitro tumor cell inhibition; assay type: cell-based; settings: 3 days
From the text: as §1, §2, §3, §4, §5, §6, §7

[7] = tested on: human colon cancer cell line (LOVO); assay: MTT in vitro tumor cell inhibition; assay type: cell-based; settings: 3 days; for Inhibitory rate %: 10^−4 g/ml
From the text: as §1, §2, §3, §4, §5, §6, §7

[8] = tested on: human gastric cancer cell line (MCG804); assay: MTT in vitro tumor cell inhibition; assay type: cell-based; settings: 3 days
From the text: as §1, §2, §3, §4, §5, §6, §7

HPV16/18 = assay: HPV detection via fluorescence quantitative PCR in genital warts tissue homogenate; design: species or system human papillomavirus; settings: genital warts tissue homogenate, 37° C., 24 hours, FQ-PCR
From the text: (§8) The aforesaid compounds and/or compositions containing the same are effective in killing and inhibiting HPV type 6/11 and type 16/18, which can be used for the preparation of drugs for preventing and treating viral infection of HPV, preventing and treating genital warts, flat warts, common warts, vaginitis, cervicitis and cervical erosion, cervical cancer, esophageal cancer and other cancers caused by HPV. The present invention observes the effect of active ingredients and products by the detection of the change in the amount of the HPV virus through the real-time quantitative PCR. Such method has been applied in several publications (Youling C A I, et al., Chinese STD/AIDS, 2002, 8: 2,108; Yuansheng W U, Ruijiang F A N, et al., Practical Application of Integrated Chinese and Western Medicine in Clinics, 2003, 3: 2,1).
(§9) The microemulsion obtained in example 1 is used as a test sample and saline for blank control.
(§10) The standard clinical genital warts specimens from a variety of patients after being cut off are washed with saline for removing bloods, and are cut into pieces under aseptic conditions, added with saline in 3 times of their volumes to be uniformly mixed, grinded into homogenate and placed at −40° C. for use.
(§11) Each test sample drug microemulsion and the saline of 50 μl for each are respectively added with 50 μl the genital warts tissue homogenate, and incubated at 37° C. for 24 hours; tests are performed according to the operation procedure provided by the HPV6, 11 and 16, 18 type FQ-PCR diagnostic kits provided by Da'an Gene Diagnostic Center. 0.2 ml of DNA extracted by the conventional alkaline lysis method is put into the thin-walled reaction tube, and simultaneously added with primers, F-PROBE, DNTP, DNA polymerase, buffers and the like in a certain concentration; ABI PRISM™ 7700 fluorescence quantitative PCR amplifier is used to repeat 40 circulations each with 45 s at 93° C. and 120 s at 55° C. after predegeneration at 93° C. for 2 mins; the quantitative results are automatically analyzed by the computer software to calculate the quantitative results of the initial copy number. The data are shown in Table 2 (completed by Da'an Gene Clinical Test Center).

HPV 6/11 Virus = assay: as above; design: species or system human papillomavirus; settings: genital warts tissue homogenate, 37° C., 24 hours, FQ-PCR
From the text: as §8, §9, §10, §11

Compound | Inhibitory rate % ([1]; ECV304, 10^−4 g/ml) | Inhibitory rate % ([1]; ECV304, 10^−5 g/ml) | Inhibitory rate % (MCF7; MCF7, 10^−4 g/ml) | Inhibitory rate % ([2]; HepG2, 10^−4 g/ml) | Inhibitory rate % ([2]; HepG2, 10^−5 g/ml) | Inhibitory rate % ([3]; 10^−4 g/ml) | Inhibitory rate % ([3]; 10^−5 g/ml) | Inhibitory rate % ([4]; PC84045, 10^−4 g/ml) | Inhibitory rate % ([4]; PC84045, 10^−5 g/ml) | Inhibitory rate % ([4]; PC84045, 10^−6 g/ml) | Inhibitory rate % ([5]; U251, 10^−4 g/ml) | Inhibitory rate % ([6]; 10^−4 g/ml) | Inhibitory rate % [7] | Inhibitory rate, sensitivity class ([7]; 10^−5 g/ml) | Inhibitory rate, sensitivity class ([7]; 10^−6 g/ml) | Inhibitory rate % ([8]; MCG804, 10^−4 g/ml) | further results
O=C(c1ccc(O)c(O)c1)c1cc(O)c(O)c(O)c1O [2,3,3′,4,4′,5-hexahydroxybenzophenone] | 70.81% | 43.47% | 65.36% | 77.03% | 55.49% | 79.84% | 32.36% | 80.43% | 70.86% | 41.369% | 64.27% | 58.94% | 75.61% | insensitive (<30% means insensitive) | insensitive (<30% means insensitive) | 71.91% | Inhibitory rate, sensitivity class ([1]; ECV304, 10^−6 g/ml): insensitive (<30% means insensitive); Inhibitory rate, sensitivity class (MCF7; MCF7, 10^−5 g/ml): insensitive (<30% means insensitive); Inhibitory rate, sensitivity class (MCF7; MCF7, 10^−6 g/ml): insensitive (<30% means insensitive); Inhibitory rate, sensitivity class ([2]; HepG2, 10^−6 g/ml): insensitive (<30% means insensitive); Inhibitory rate, sensitivity class ([3]; 10^−6 g/ml): insensitive (<30% means insensitive); Inhibitory rate, sensitivity class ([5]; U251, 10^−5 g/ml): insensitive (<30% means insensitive); Inhibitory rate, sensitivity class ([5]; U251, 10^−6 g/ml): insensitive (<30% means insensitive); Inhibitory rate, sensitivity class ([6]; 10^−5 g/ml): insensitive (<30% means insensitive); Inhibitory rate, sensitivity class ([6]; 10^−6 g/ml): insensitive (<30% means insensitive); Inhibitory rate, sensitivity class ([8]; MCG804, 10^−5 g/ml): insensitive (<30% means insensitive); Inhibitory rate, sensitivity class ([8]; MCG804, 10^−6 g/ml): insensitive (<30% means insensitive)
O=C(c1ccccc1)c1ccc(O)cc1O [2,4-dihydroxybenzophenone] | 96.17% | 73.12% | 87.60% | 94.78% | 66.74% | 93.58% | 62.30% | 92.65% | 89.88% | 44.39% | 85.31% | 95.65% | 93.80% | insensitive (<30% means insensitive) | insensitive (<30% means insensitive) | 92.54% | Inhibitory rate % ([1]; ECV304, 10^−6 g/ml): 45.37%; Inhibitory rate % (MCF7; MCF7, 10^−5 g/ml): 68.62%; Inhibitory rate % (MCF7; MCF7, 10^−6 g/ml): 28.57%; Inhibitory rate % ([2]; HepG2, 10^−6 g/ml): 58.63%; Inhibitory rate % ([3]; 10^−6 g/ml): 32.56%; Inhibitory rate % ([5]; U251, 10^−5 g/ml): 67.25%; Inhibitory rate % ([5]; U251, 10^−6 g/ml): 31.21%; Inhibitory rate % ([6]; 10^−5 g/ml): 48.96%; Inhibitory rate % ([6]; 10^−6 g/ml): 37.32%; Inhibitory rate % ([8]; MCG804, 10^−5 g/ml): 86.35%; Inhibitory rate % ([8]; MCG804, 10^−6 g/ml): 41.35%
CCCOC(=O)c1cc(O)c(O)c(O)c1 [Propyl gallate, propyl 3,4,5-trihydroxybenzoate, reference compound] |  |  |  |  |  |  |  |  |  |  |  |  |  |  |  |  | HPV16/18 (HPV16/18): 0 copy/ml; HPV 6/11 Virus (HPV 6/11 Virus): 0 copy/ml
